Experimental data as given in PubChem BioAssay (NCI).
“And” between values parts separate entries of the source, which are not always exact repeats. Equal values may be shown once.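 A five-concentration, 48-hour dose response in 96-well plates underlies each endpoint, interpolated linearly between surrounding concentrations. At the GI50, growth is halved. TGI: concentration producing complete growth inhibition.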

Key:
Assay in all cases: NCI anticancer screen, dose series, 48 h
[1] = tested on: MDA-N
[2] = tested on: HOP-18 NSCLC
[3] = tested on: LXFL 529 NSCLC
[4] = tested on: M19-MEL melanoma
[5] = tested on: DMS 273 small cell lung
[6] = tested on: XF 498 CNS
[7] = tested on: DMS 114 small cell lung
[8] = tested on: SNB-78 CNS
[9] = tested on: RXF-631 renal

With `O=C(/C=C/c1ccccc1)CCc1c(O)c2ccccc2oc1=O` the TGI [1] was over 100 µM.
Compound `COc1cc(C2(C)SCCCS2)c(I)c(OC)c1OC` has a TGI [2] of over 100 µM, a TGI [3] of over 100 µM and a TGI [4] of over 100 µM. For the same compound, the TGI [5] was over 100 µM, the TGI [6] was over 100 µM and the TGI [7] was over 100 µM. For the same compound, the TGI [8] was over 100 µM and the TGI [9] was over 100 µM.
`Cc1ccc(C)c2c1CCc1cc3ccccc3nc1-2` gave a TGI [2] of over 100 µM, a TGI [3] of over 100 µM and a TGI [4] of over 100 µM. For the same compound, the TGI [6] was over 100 µM, the TGI [7] was over 100 µM and the TGI [8] was over 100 µM.
Work on `CCC1(CC)C(=O)[N-]C(=O)[N-]C1=O.[Au+].[Au+].c1ccc([PH+](c2ccccc2)c2ccccc2)cc1.c1ccc([PH+](c2ccccc2)c2ccccc2)cc1` yielded a GI50 [2] of 0.256 µM, a TGI [2] of 1.16 µM and a GI50 [3] of 0.153 µM. The TGI [3] was 0.323 µM, the GI50 [4] was 0.937 µM and the TGI [4] was 2.17 µM.
For `C[C@@H](c1ccccc1)N(CC#N)C1CCC[C@H]1O` (stereo partly specified), the TGI [2] was over 100 µM, the TGI [4] was over 100 µM and the TGI [5] was over 100 µM. The TGI [6] was over 100 µM, the TGI [8] was over 100 µM and the TGI [9] was over 100 µM.
Compound `COC(=O)/C(=N/O)C(C(=O)OC)C(=O)C(=O)Nc1c(Cl)cc(C)cc1S(=O)(=O)O` (stereo unspecified) has a TGI [2] of over 100 µM, a TGI [3] of over 100 µM and a TGI [4] of over 100 µM. The TGI [5] was 33.2 µM, the TGI [6] was over 100 µM and the TGI [7] was over 100 µM. The TGI [8] was over 100 µM and the TGI [9] was over 100 µM.
For `C/C=C/C(=O)[O-].N.N.N.N.N.[Co+3].[O-][Cl+3]([O-])([O-])[O-]`, the GI50 [3] was over 100 µM, the TGI [3] was over 100 µM and the GI50 [5] was over 100 µM. For the same compound, the TGI [5] was over 100 µM, the GI50 [8] was over 100 µM and the TGI [8] was over 100 µM.
`COc1cccc2ccc3c(c12)C(=O)OC31CCc2c(C)cccc21` (stereo unspecified) showed a TGI [2] of over 31.6 µM, a TGI [3] of over 31.6 µM and a TGI [4] of over 31.6 µM. For the same compound, the TGI [5] was over 31.6 µM, the TGI [6] was 86.2 µM and the TGI [7] was over 31.6 µM. It also gave a TGI [1] of over 100 µM and a TGI [8] of over 100 µM.
Work on `O=C(O)c1oc2cccc3c2c1CCC3` yielded a TGI [3] of over 100 µM, a TGI [4] of over 100 µM and a TGI [5] of over 100 µM. For the same compound, the TGI [6] was over 100 µM, the TGI [7] was over 100 µM and the TGI [8] was over 100 µM. For the same compound, the TGI [9] was over 100 µM.
With `O=C(O)Cc1cc(=O)[nH]c2c1C(=O)CCC2` the TGI [2] was over 100 µM, the TGI [3] was over 100 µM and the TGI [4] was over 100 µM. For the same compound, the TGI [5] was over 100 µM and the TGI [6] was over 100 µM.
`COC(=O)C1=C(c2cc(OC)c(OC)c(OC)c2)O[C@H](c2ccc3c(c2)OCO3)[C@H]1COC(C)=O` was tested, and the TGI [2] was over 100 µM, the TGI [3] was 69.2 µM and the TGI [4] was over 100 µM. It also gave a TGI [5] of over 100 µM, a TGI [6] of over 100 µM and a TGI [8] of over 100 µM. The TGI [9] was over 100 µM.
With `CCCCCCCCCCCCCCC(O)C1CCC(C(O)CCC(O)CCCCCC(O)CC2=CC(C)OC2=O)O1` (stereo unspecified) the TGI [3] was 13 µM, the TGI [4] was 11.2 µM and the TGI [5] was 4.75 µM. It also gave a TGI [6] of 4.88 µM, a TGI [7] of 4.57 µM and a TGI [8] of 8.31 µM. The TGI [9] was 16.4 µM.
`C[C@]12CC[C@H]3[C@@H](CCC4=C[C@@H](OC5OCC(OC6OC(CO)C(O)C(O)C6O)C(O)C5O)CC[C@@]43C=O)[C@@]1(O)CCC2C1=CC(=O)OC1` (stereo partly specified) gave a TGI [1] of 3.03 µM.
For `COc1ccc(N2C(=O)C(N3C(=O)C=CC3=O)C2C=O)cc1` (stereo unspecified), the TGI [2] was over 100 µM, the TGI [3] was over 100 µM and the TGI [4] was over 100 µM. It also gave a TGI [5] of over 100 µM and a TGI [8] of over 100 µM.
For `S=c1[nH]nc(SCc2ccccc2Cl)c2[nH]cnc12`, the TGI [1] was over 100 µM.
In the case of `COc1cc(N=Nc2cccc(S(N)(=O)=O)c2)c2ccccc2c1N`, the TGI [1] is reported as 5.63 µM.
`O=C1C2=C(c3ccccc31)C(c1ccc(Cl)cc1)NC(=S)N2` (stereo unspecified) showed a TGI [3] of 29.5 µM, a TGI [4] of 37.2 µM and a TGI [5] of 42.8 µM. For the same compound, the TGI [7] was 67.5 µM.
`CCCCN(CCCC)C(=O)C(=O)CC(=O)/C=C/c1ccccc1` gave a TGI [2] of over 100 µM, a TGI [3] of over 100 µM and a TGI [4] of over 100 µM. The TGI [5] was over 100 µM, the TGI [7] was over 100 µM and the TGI [8] was over 100 µM. For the same compound, the TGI [9] was over 100 µM.
Compound `COc1ccc(/C=C/c2cnc3ccccc3n2)cc1OC` has a TGI [1] of over 100 µM.
Work on `O=C1C2=C(c3ccccc31)C(c1ccc(F)cc1)N1C(=O)CCSC1=N2` (stereo unspecified) yielded a TGI [3] of over 100 µM, a TGI [4] of over 100 µM and a TGI [5] of over 100 µM. For the same compound, the TGI [6] was over 100 µM and the TGI [7] was over 100 µM.
Work on `C[C@H]1CCC/C=C/[C@@H]2C[C@H](O)C[C@H]2[C@H](O)[C@@H](SC2OC(CO)C(O)C(O)C2O)CC(=O)O1` (stereo partly specified) yielded a GI50 [1] of 52.9 µM and a TGI [1] of over 100 µM.
Compound `COC(=O)C12C3C4C1C1C2C3C41C(=O)N(C(C)C)C(C)C` (stereo unspecified) has a TGI [3] of over 100 µM, a TGI [4] of over 100 µM and a TGI [5] of over 100 µM. The TGI [7] was over 100 µM and the TGI [8] was over 100 µM.
`Cc1ccc([N+](=O)[O-])cc1NC(=O)C(=O)C1CCC2=C(Sc3ccccc3N2)C1=O` (stereo unspecified) gave a TGI [1] of over 100 µM.
With `O=[N+]([O-])c1ccc(NC(=S)N/N=C(\c2ccccc2)c2ccccn2)cc1` the TGI [1] was 3.32 µM and 3.1 µM.
`CC(=O)OCC(OC(C)=O)C(OC(C)=O)C(OC(C)=O)C(=O)CNn1c(-c2ccccc2Cl)nc2ccc(Br)cc2c1=O` (stereo unspecified) gave a TGI [3] of over 100 µM, a TGI [4] of over 100 µM and a TGI [5] of over 100 µM. It also gave a TGI [6] of 66.2 µM, a TGI [7] of over 100 µM and a TGI [8] of over 100 µM.
`c1ccc(-c2[nH]c(-c3ccccc3)c(-c3cnccn3)c2-c2cnccn2)cc1` showed a TGI [2] of over 100 µM, a TGI [4] of over 100 µM and a TGI [5] of over 100 µM. It also gave a TGI [6] of over 100 µM, a TGI [7] of over 100 µM and a TGI [8] of over 100 µM.
Compound `CCOC(=O)/C(C#N)=C(N)/C(=N\Nc1cccc(C(F)(F)F)c1)C(=O)OCC` has a TGI [2] of over 100 µM, a TGI [3] of over 100 µM and a TGI [4] of over 100 µM. The TGI [5] was over 100 µM, the TGI [7] was over 100 µM and the TGI [8] was over 100 µM.
For `O=C(Nc1ccccc1C(=O)O)C(=O)C(C(=O)c1ccccc1-c1ccccc1)C1OC(=O)c2ccccc21` (stereo unspecified), the TGI [2] was 28.2 µM, the TGI [3] was 28 µM and the TGI [4] was 64.2 µM. It also gave a TGI [5] of 95.3 µM, a TGI [6] of 22 µM and a TGI [8] of over 100 µM.
`COC(=O)c1nn(C(=N)c2ccc(Cl)cc2)c2c1CCCCC2` gave a TGI [3] of over 100 µM, a TGI [4] of over 100 µM and a TGI [5] of over 100 µM. For the same compound, the TGI [7] was over 100 µM and the TGI [8] was over 100 µM.
`CC(=O)O[C@H]1C(=O)[C@@]2(C)C(C(OC(=O)c3ccccc3)[C@]3(O)CC(OC(=O)C(O)C(NC(=O)c4ccccc4)c4ccc(C)cc4)C(C)=C1C3(C)C)[C@]1(OC(C)=O)CO[C@@H]1C[C@@H]2O` (stereo partly specified) showed a TGI [2] of 23.6 µM, a TGI [3] of 11.1 µM and a TGI [4] of 3.57 µM. It also gave a TGI [5] of 2.89 µM, a TGI [6] of 0.134 µM and a TGI [7] of 0.168 µM. The TGI [8] was over 25 µM.
Work on `O=c1cccccc1NCCNc1cccccc1=O` yielded a TGI [3] of over 100 µM, a TGI [4] of over 100 µM and a TGI [5] of over 100 µM. The TGI [6] was over 100 µM, the TGI [7] was over 100 µM and the TGI [8] was over 100 µM. The TGI [9] was over 100 µM.
Compound `N[C@H](C(=O)O)[C@@H](Cl)CC(=O)O` has a TGI [2] of over 100 µM, a TGI [3] of over 100 µM and a TGI [4] of over 100 µM. For the same compound, the TGI [5] was over 100 µM, the TGI [6] was over 100 µM and the TGI [7] was over 100 µM. The TGI [8] was over 100 µM.
`O=C(Nc1ccccc1C(=O)Nc1nccs1)c1ccccc1` was tested, and the TGI [1] was over 100 µM.
With `CNC(C)Cc1ccc(O)cc1` (stereo unspecified) the TGI [2] was over 100 µM, the TGI [3] was over 100 µM and the TGI [5] was over 100 µM. It also gave a TGI [6] of over 100 µM, a TGI [7] of over 100 µM and a TGI [8] of over 100 µM. The TGI [9] was over 100 µM.
`COc1cc2c3c(c1OC)Oc1ccc(cc1)CC1c4c(cc(OC)c(OC)c4Oc4ccc(cc4)CC3N(C)CC2)CCN1C` (stereo unspecified) showed a TGI [2] of 84.2 µM, a TGI [3] of 39.6 µM and a TGI [4] of 31.3 µM. It also gave a TGI [5] of 37.2 µM and a TGI [7] of 35.9 µM.
`CC1=NN(C(=O)c2cc(Cl)cc([N+](=O)[O-])c2)C(=O)C1N=Nc1ccccc1C(=O)O` (stereo unspecified) was tested, and the TGI [2] was over 100 µM, the TGI [3] was over 100 µM and the TGI [4] was over 100 µM. The TGI [5] was over 100 µM, the TGI [8] was over 100 µM and the TGI [9] was over 100 µM.
Work on `CC(C)N(Cc1ccccc1)S(=O)(=O)c1n[nH]c(C(C)(C)C)n1` yielded a TGI [1] of over 100 µM.
`O=C1NC(O)CCN1C1CC(O)C(CO)O1` (stereo unspecified) showed a TGI [1] of over 100 µM.
For `COc1cc(C(=O)C/C(CCC(=O)Nc2ccc(Cl)cc2Cl)=N/Nc2nnc(C)n2N)ccc1O`, the TGI [2] was over 100 µM, the TGI [3] was over 100 µM and the TGI [4] was over 100 µM. For the same compound, the TGI [5] was over 100 µM, the TGI [6] was over 100 µM and the TGI [8] was over 100 µM.
